Measured values as given in PubChem BioAssay AID2060484 (Molecular Pharmacology Branch, DTP, NCI, 2025).
pIC50: −log10 of the molar value. Several values for one entry are separate records, joined by “and”; a condition that tells them apart may be missing. Equal entries are not always repeated.

Tested on: SUM149PT spheroids with HUVEC/MSC, viability
Assay: Anticancer human tumor SUM149PT cell line growth inhibition [GQUAD];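 note: spheroids exposed to drugs for seven days before readout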;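 for viability, T/C: percent viability relative to DMSO vehicle control taken as 100%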
Details: for viability, T/C: stronger effect = lower value
Text: DNA G-quadruplex Stabilizer Agents in Combinations in Complex Spheroids
A high-throughput screen of multi-cell type tumor spheroids was designed to identify active combinations of DNA G-quadruplex stabilizer agents and targeted small molecules. Complex spheroids include a stromal component modeled by human endothelial cells (HUVEC) and fibroblasts modeled by human mesenchymal stem cells (MSCs). The concentration ranges selected for each drug and investigational agent were based upon clinically achievable concentrations if the clinical Cmax of the agent was known.
Compounds. The drugs and investigational agents: pidnarulex (CX-5461; NSC782164), APTO-253 (NSC789042), BRACO-19 (NSC847499), peposertib (NSC802822), ceralasertib (NSC780249), elimusertib (NSC800525), camonsertib (NSC841442), AZD-1390 (NSC803789), olaparib (NSC753686), talazoparib (NSC767125), ART-558 (NSC835418), sotorasib (NSC818433), MRTX-1133 (NSC836407), SN-38 (NSC673596), topotecan (NSC609699), etoposide (NSC141540), doxorubicin (NSC123127), gemcitabine (NSC613327), 5-fluorouracil (NSC19893), paclitaxel (NSC125973), vemurafenib (NSC761431), panobinostat (NSC761190), R-306465 (JNJ-16241199; NSC773264), adavosertib (NSC754352), TP-3654 (NSC805149), carboplatin (NSC241240), KSQ-4279 (NSC840948), and staurosporine (NSC755774) were obtained from the National Cancer Institute (NCI) Developmental Therapeutics Program Chemical Repository (34). The FDA-approved anticancer drug set is available from the NCI Developmental Therapeutics Program. […] The stock solutions were prepared in dimethyl sulfoxide (DMSO, Sigma-Aldrich, St. Louis, MO, cat. D2650) at 800-fold the tested concentration and stored at -70 degrees C prior to their use. All drugs and investigational agents were tested over a range starting from a high concentration at or near the clinical Cmax and decreasing in half-log increments. If the clinical Cmax for an agent had not been determined, the highest concentration tested was 10 microM.
2.3 Cell Culture. All cells were maintained in an incubator at 37 degrees C and 5% CO2 with 95% humidity. The PDC lines were cultured according to standard operating procedures established by the NCI PDMR. All PDCs were thawed and cultured in Matrigel-coated flasks prepared with a working solution of 1X Ham's F-12 nutrient mix, without supplementation (Invitrogen, cat. 11765054), 100 U/mL penicillin-streptomycin (Invitrogen, cat. 15140122), and 2.5% Matrigel (Corning Inc., cat. 354248) for the first three passages. The 857933-349-R-J2-PDC line was cultured in 6C/Colon 1B media, which includes advanced DMEM/F-12 (Thermo Fisher Scientific, cat. 12634028), 10 mM HEPES (Thermo Fisher Scientific, cat. 15630080), 1X GlutaMAX supplement (Thermo Fisher Scientific, cat. 35050061), 0.1 mg/mL primocin (InvivoGen, cat. ant-pm-2), 10% defined fetal bovine serum, heat inactivated (HyClone Laboratories Inc., cat. SH30070.03HI), 50% L-WRN conditioned media (ATCC, cat. CRL-3276), 1.25 mM N-Acetyl-L-cysteine (Sigma-Aldrich, cat. A9165), 10 mM nicotinamide (Sigma-Aldrich, cat. N0636), 1X B-27 supplement (Thermo Fisher Scientific, cat. 17504044), 1X N-2 supplement (Thermo Fisher Scientific, cat. 17502048), 10 microM Y-27632 dihydrochloride (Tocris Bioscience, cat. 1254), and 50 ng/mL human EGF recombinant protein (Thermo Fisher Scientific, cat. PHG0311). The 485176-168-R4-J1-PDC line was cultured in Panc media, which includes all 6C/Colon 1B media components plus 100 ng/mL human FGF-10 (Thermo Fisher Scientific, cat. 100-26), 500 nM SB-431542 (Selleckchem, cat. S1067), and gastrin (Tocris, cat. 3006).
[…]

[1] = curve of first compound, second compound 0.0316 µM
[2] = curve of first compound, second compound 0.1 µM
[3] = curve of first compound, second compound 0.316 µM
[4] = curve of first compound, second compound 1 µM
[5] = curve of first compound, second compound 3.16 µM
[6] = curve of first compound, second compound 10 µM
[7] = second compound 0.0316 µM, first compound 0.0316 µM
[8] = second compound 0.0316 µM, first compound 0.1 µM
[9] = second compound 0.0316 µM, first compound 0.316 µM
[10] = second compound 0.0316 µM, first compound 1 µM
[11] = second compound 0.0316 µM, first compound 3.16 µM
[12] = second compound 0.0316 µM, first compound 10 µM
[13] = second compound 0.1 µM, first compound 0.0316 µM
[14] = second compound 0.1 µM, first compound 0.1 µM
[15] = second compound 0.1 µM, first compound 0.316 µM
[16] = second compound 0.1 µM, first compound 1 µM
[17] = second compound 0.1 µM, first compound 3.16 µM
[18] = second compound 0.1 µM, first compound 10 µM
[19] = second compound 0.316 µM, first compound 0.0316 µM
[20] = second compound 0.316 µM, first compound 0.1 µM
[21] = second compound 0.316 µM, first compound 0.316 µM
[22] = second compound 0.316 µM, first compound 1 µM
[23] = second compound 0.316 µM, first compound 3.16 µM
[24] = second compound 0.316 µM, first compound 10 µM
[25] = second compound 1 µM, first compound 0.0316 µM
[26] = second compound 1 µM, first compound 0.1 µM
[27] = second compound 1 µM, first compound 0.316 µM
[28] = second compound 1 µM, first compound 1 µM
[29] = second compound 1 µM, first compound 3.16 µM
[30] = second compound 1 µM, first compound 10 µM
[31] = second compound 3.16 µM, first compound 0.0316 µM
[32] = second compound 3.16 µM, first compound 0.1 µM
[33] = second compound 3.16 µM, first compound 0.316 µM
[34] = second compound 3.16 µM, first compound 1 µM
[35] = second compound 3.16 µM, first compound 3.16 µM
[36] = second compound 3.16 µM, first compound 10 µM
[37] = second compound 10 µM, first compound 0.0316 µM
[38] = second compound 10 µM, first compound 0.1 µM
[39] = second compound 10 µM, first compound 0.316 µM
[40] = second compound 10 µM, first compound 1 µM
[41] = second compound 10 µM, first compound 3.16 µM
[42] = second compound 10 µM, first compound 10 µM

In the case of `COc1ncnc(C2CC2)c1-c1ncc2cnn(Cc3ccc(-c4nc(C(F)(F)F)cn4C(C)C)cc3)c2n1` + Cc1[nH]c2ccc(F)cc2c1-c1nc2c3cccnc3c3ncccc3c2[nH]1, the pIC50 [1] was < 5.00, the pIC50 [2] was < 5.00 and the pIC50 [3] was < 5.00. The pIC50 [4] was < 5.00, the pIC50 [5] was < 5.00 and the pIC50 [6] was < 5.00. For the same molecule, the viability, T/C [7] was 106%, the viability, T/C [8] was 87.2% and the viability, T/C [9] was 92.7%. For the same molecule, the viability, T/C [10] was 92.4%, the viability, T/C [11] was 91.6% and the viability, T/C [12] was 95.4%. For the same molecule, the viability, T/C [13] was 103%, the viability, T/C [14] was 104% and the viability, T/C [15] was 87.2%. The viability, T/C [16] was 90.1%, the viability, T/C [17] was 91.2% and the viability, T/C [18] was 94.3%. The viability, T/C [19] was 97.4%, the viability, T/C [20] was 97.6% and the viability, T/C [21] was 68.9%. It also gave a viability, T/C [22] of 93%, a viability, T/C [23] of 97.8% and a viability, T/C [24] of 94.6%. For the same molecule, the viability, T/C [25] was 98.1%, the viability, T/C [26] was 98.1% and the viability, T/C [27] was 92.3%. The viability, T/C [28] was 92.2%, the viability, T/C [29] was 90.1% and the viability, T/C [30] was 95.3%. It also gave a viability, T/C [31] of 97.4%, a viability, T/C [32] of 89.6% and a viability, T/C [33] of 86.1%. The viability, T/C [34] was 82.3%, the viability, T/C [35] was 89.4% and the viability, T/C [36] was 89.2%. For the same molecule, the viability, T/C [37] was 91.8%, the viability, T/C [38] was 91.4% and the viability, T/C [39] was 85.4%. It also gave a viability, T/C [40] of 83.7%, a viability, T/C [41] of 90.8% and a viability, T/C [42] of 92.5%.

Work on `C#Cc1c(F)ccc2cc(O)cc(-c3ncc4c(N5CC6CCC(C5)N6)nc(OCC56CCCN5CC(F)C6)nc4c3F)c12` (stereo not drawn) + CN(C)c1ccc(Nc2c3ccc(NC(=O)CCN4CCCC4)cc3nc3cc(NC(=O)CCN4CCCC4)ccc23)cc1 yielded a pIC50 [1] of 5.28, a pIC50 [2] of 5.13 and a pIC50 [3] of 5.61. The pIC50 [4] was 5.34, the pIC50 [5] was 5.80 and the pIC50 [6] was 5.77. For the same molecule, the viability, T/C [7] was 100%, the viability, T/C [8] was 93.3% and the viability, T/C [9] was 73.5%. The viability, T/C [10] was 73.8%, the viability, T/C [11] was 57.2% and the viability, T/C [12] was 40.8%. For the same molecule, the viability, T/C [13] was 107%, the viability, T/C [14] was 102% and the viability, T/C [15] was 88.1%. The viability, T/C [16] was 66.3%, the viability, T/C [17] was 58.1% and the viability, T/C [18] was 46.6%. The viability, T/C [19] was 93.6%, the viability, T/C [20] was 83.9% and the viability, T/C [21] was 68.7%. For the same molecule, the viability, T/C [22] was 57.1%, the viability, T/C [23] was 49.6% and the viability, T/C [24] was 38.6%. For the same molecule, the viability, T/C [25] was 75.5%, the viability, T/C [26] was 82.8% and the viability, T/C [27] was 77.2%. It also gave a viability, T/C [28] of 61.3%, a viability, T/C [29] of 61.1% and a viability, T/C [30] of 34.1%. For the same molecule, the viability, T/C [31] was 88.2%, the viability, T/C [32] was 81.6% and the viability, T/C [33] was 73.3%. The viability, T/C [34] was 51.3%, the viability, T/C [35] was 45.2% and the viability, T/C [36] was 31%. For the same molecule, the viability, T/C [37] was 80.7%, the viability, T/C [38] was 86.6% and the viability, T/C [39] was 62.8%. For the same molecule, the viability, T/C [40] was 56.3%, the viability, T/C [41] was 45% and the viability, T/C [42] was 19%.

`O=C(NO)c1cnc(N2CCN(S(=O)(=O)c3ccc4ccccc4c3)CC2)nc1` was tested, and the viability, T/C (compound 0.0316 µM) was 97.1% and 108% and 102%, the viability, T/C (compound 0.1 µM) was 86.9% and 95.1% and 86.5% and the viability, T/C (compound 0.316 µM) was 48.5% (2×) and 56.6%. The viability, T/C (compound 1 µM) was 0.52% and 2.34% and 1.78%, the viability, T/C (compound 3.16 µM) was 0.32% and 0.27% and 0.08% and the viability, T/C (compound 10 µM) was 0.29% and 0.71%. For the same molecule, the pIC50 (curve of compound) was 6.53 and 6.45 and 6.54.

In the case of `COc1cccc2c1C(=O)c1c(O)c3c(c(O)c1C2=O)CC(O)(C(=O)CO)CC3OC1CC(N)C(O)C(C)O1` (stereo not drawn), the viability, T/C (compound 0.0316 µM) was 89.5% and 100% and 94%, the viability, T/C (compound 0.1 µM) was 56.8% and 67.1% and 55.3% and the viability, T/C (compound 0.316 µM) was 39.5% and 52.4% and 38.2%. The viability, T/C (compound 1 µM) was 16.9% and 25.1% and 15.2%, the viability, T/C (compound 3.16 µM) was 1.91% and 4.16% and 1.88% and the viability, T/C (compound 10 µM) was 1.41% and 1.73% and 1.61%. The pIC50 (curve of compound) was 6.80 and 6.57 and 6.83.
